According to patent EP1002537A1, “Use of melarsoprol for the manufacture of a medicament for treating B-cell lymphoproliferative diseases, such as multiple myeloma” (ASSISTANCE PUBLIQUE, HOPITAUX DE PARIS, priority 1998, dated 2000):

How the values were obtained:
[1] = test system: T, myeloid and epithelial cell lines; assay: Comparative example: growth of other hematopoietic cell types; type: cell-based
Experimental: (§1) The human myeloma cell lines were purchased from DMS (Braunschweig, Germany) (NCI H929 and LP1) and from American Type Culture Collections (Rockville, MD) (OPM2 and U266). NCI, OPM2, U266 (and all studied non plasmacytic cell lines) were cultured in RPMI 1640 supplemented with 1% penicillin/streptomycin, 1 mmol/L L-glutamine and 10% heat-inactivated fetal calf serum at 37°C, 5% CO2 in air. LP1 cells were cultured in similar conditions, in Iscove's medium.
(§2) Cells were incubates with or without 10^-5 to 10^-8 mol/L melarsoprol up to 96 hours, without any adjustment after culture initiation. Cell number and viability were determined by trypan blue exclusion. Morphologic analysis was performed using Wright-Giema and DAPI (4'-6-diamidino-2-phenylindole) staining on cytocentrifuge preparations. For proliferation assays, aliquots of 2x10^4 cells in triplicate were incubated in 96-well plates and 3H-thymidine (3H-TdR) (1 µCi) was added for the final 8 hours of the culture period. Cells were harvested onto glass filter and ^3H-TdR incorporation was counted on a liquid scintillation counter.
In addition to plasma cell, other hematopoietic cell types were also studied. The inhibition of growth was marginal in T, myeloid and epithelial cell lines.

[2] = SCID mice transplanted with human myeloma cells: toxicity and arsenic amounts; type: in vivo; conditions: any studied organ, especially the liver
Experimental: (§3) SCID mice were irradiated before the intra-peritoneal (IP) injection of 3 to 5*10^6 plasma cells purified from peripheral blood of patients with plasma cell leukemia. Engrafment was assessed by bi-monthly measurement of the human monoclonal immunoglobulin (HuMIg) concentration in mouse serum, using an ELISA.
Arsenic amounts in mouse serum and tissues were in the expected 〈〈 pharmacological 〉〉 range.

[3] = test system: plasma-cell enriched preparations of myeloma patients; assay: Growth (3H TdR uptake) of fresh myeloma cells; type: cell-based; conditions: Homo sapiens; three plasma-cell preparations; read-out: IC50 (inhibition of cell growth)
Excerpt: (§4) Eleven patients with multiple myeloma (MM) or plasma cell leukemia (PCL) were studied after informed consent. Mononuclear cells were separated by Ficoll-Hypaque centrifugation from peripheral blood of 4 patients with PCL (including 2 with a primary PCL), from bone marrow (BM) of 6 patients with MM (including 4 at diagnosis) and from the pleural effusion of a newly diagnosed myeloma patient. Plasma cell-enriched preparations were obtained by centrifugation of mononuclear cells on a Percoll gradient, as previously described (Iwato K, et al, Blood 72:562, 1988). Plasma cell percentages were determined after intracytoplasmic staining using fluorescein-conjugated antibodies to human immunoglobulin (Ig) heavy and light chains (from Nordic, Tilburg, The Netherlands).Short-term cultures of blood and BM mononuclear cells and of plasma cell-enriched preparations were performed in RPMI 1640, in similar conditions as cell lines.
(§5) Cells were incubates with or without 10^-5 to 10^-8 mol/L melarsoprol up to 96 hours, without any adjustment after culture initiation. Cell number and viability were determined by trypan blue exclusion. Morphologic analysis was performed using Wright-Giema and DAPI (4'-6-diamidino-2-phenylindole) staining on cytocentrifuge preparations. […] Cells were harvested onto glass filter and ^3H-TdR incorporation was counted on a liquid scintillation counter. […]

leukemia = conditions: IV daily for 3 days, repeated weekly for 3 weeks, 1 to 3,6mg/kg; cited from earlier work
[4] = test system: myeloid cells (CD38^low, CD15 +); assay: FACS analysis of patients' bone marrow mononuclear cells (annexin V with CD38 or CD15); type: cell-based, human
Excerpt: as §4
(§6) Direction of phosphatidylserine on the outer leaflet of apoptotic cells was performed using Annexin-V-FLUOS (Boehringer Mannheim, Germany) and propidium iodide (PI) according to the manufacturer's recommendations. Expression of cell surface CD38, CD138 (BB-4° and CD15 antigens was studied using corresponding fluorescein isothiocyanate (FITC) or phycierythrin conjugated antibodies that were purchased from Diaclone (Besançon, France) and Becton Dickinson (San Jose, Ca.). Flow cytometry was performed with a FACSean apparatus (Beckton Dickinson).
(§7) To comparatively assess the effects of melarsoprol on myeloid and plasma cells, bone marrow mononuclear cells obtained from patients with newly diagnosed multiple myeloma were cultured for 5 days in the presence of 10^-6 mol/L melarsoprol. […] Indeed, in a representative study a bone marrow sample initiality containing 30% of plasma cells (CD38^higt +), 12% of the latter expressed annexin V after 2 days of culture with 10^-6 mol/L melarsoprol, whereas less than 1% of myeloid cells (CD38^low, CD15 +) were positive for the apoptosis marker. At day 5, the plasma cell number had much more decreased than the myeloid cell number and viable cells (propidium iodide negative) contained 7.8 % of CD38^higt positive cells, as compared to 22.5 % in control culture, performed with medium alone. CD15+ myelo-monocytic cell percentages were similar in arsenic-exposed cultures and in controls, with a decrease in the CD15^low+ fraction.

[5] = test system: plasma cells (CD38^higt +); assay: as above; type: cell-based, human
Excerpt: as §4, §6, §7

NCI = assay: Cell survival by trypan blue exclusion; type: cell-based, human; conditions: after 48 hours, 10-6 mol/L melarsoprol
Experimental: as §1, §2
(§8) Treatment of plasma cell lines with melarsoprol led to a dose- and time dependent inhibition of cell survival, as determined using trypan blue exclusion. After 48 hours, in the presence of 10-6 mol/L melarsoprol , percentage of trypan blue negative cells were 15 ± 7.2, 56 ± 11, 62 ± 5 8, and 81 ± 6.8% in NCI, OPM2, U266 and LP1 cells, respectively. Cell death was mainly due to apoptosis, as shown by the characteristic morphological changes in nuclei as well as by the TUNEL method.

LP1 cells [6] = assay: Cell survival by trypan blue exclusion; type: cell-based, human; conditions: LP1, after 48 hours, 10-6 mol/L melarsoprol
Experimental: as §1, §2, §8

OPM2 = assay: Cell survival by trypan blue exclusion; type: cell-based, human; conditions: OPM2, after 48 hours, 10-6 mol/L melarsoprol
Experimental: as §1, §2, §8

NCI cells [7] = assay: FACS analysis after annexin-V and propidium iodide staining; type: cell-based, human; conditions: 10^-6 mol/L
Experimental: as §6
(§9) FACS analysis of NCI and U266 cells after staining with fluorescein-labelled annexin-V and propidium iodide was performed to detect the translocation of phosphatidylserine from the inner part of plasma membrane to the outer layer which accurs in the early stages of apoptosis. Before staining, cells were cultivated with medium alone) melarsoprol (10^-6 mol/L) or dexamethasone (Dex, 10^-6 mol/L) over a time period of 48 hours. […] During the same time; the number of double positive necrotic cells increased and, at 18 hours, only very few double-negative living cells were detectable. Apoptosis was moderate in cells cultured with Dex and in control culture. Annexin-positive, PI-negative apoptotic U266 cells were also observed in the presence of melarsoprol (18% of residual cells after a 18-hour culture).

U266 cells = assay: as above; type: cell-based, human; conditions: 10^-6 mol/L, 18-hour culture
Experimental: as §6, §9

[8] = test system: Mononuclear cells purified from peripheral blood of normal donors; assay: Pokeweed mitogen (PWM)-induced plasma cell differentiation of normal lymphocytes; type: cell-based, human; conditions: 10^-6 mol/L and 5 x10^-7 mol/L
Experimental: Mononuclear blood cells of 3 normal donors were cultured in the presence of PWM (from Life Technology, Cergy Pontoise, diluted at 1/100) and melarsoprol (5 x 10^-7 or 10^-6 mol/L). Plasma cells were numerated at day 7 after immunofluorescence staining with fluorescein-conjugated antibodies directed against human Ig chains, IgM concentrations in supernatants were also measured at day 5, by ELISA, as previously described (Grillot-Courvalin C et al, Scand. J. Immunol. 23:679, 1986).
Mononuclear cells purified from peripheral blood of normal donors were incubated with pokeweed mitogen in the presence of two different concentrations (10^-6 mol/L and 5 x10^-7 mol/L) of the organic or of the inorganic arsenical.

human myeloma cells = assay: SCID mice transplanted with human myeloma cells: efficacy; type: in vivo; conditions: 30µg/g 5 days a week IP, 30 to 40 days
Experimental: The following studies of melarsoprol conducted in SCID mice transplanted with human myeloma cells confirm in vivo the in vitro effects of the arsenical compound.
as §3
Mice injected with the cells from 3 different patients developed the human tumor and were treated with melarsoprol during 30 to 40 days.

myeloma cells = assay: Growth and survival of myeloma cells (summary statement); type: cell-based, human
Excerpt: According to the present invention, melarsoprol reduces the growth and survival of myeloma cells by triggering programmed cell death.
This supports the clinical efficacy of the melarsoprol in patients with multiple myeloma. Indeed, melarsoprol is active at concentrations ranging from 10^-6 to 10^-8 mol/L, which correspond to the in vivo pharmacological concentrations of the drugs.

[9] = test system: secreting multiple myeloma; assay: Bi-central, open, non-comparative study in patients with secreting multiple myeloma; type: in vivo; conditions: IV 1mg/kg first day, then 2mg/kg daily, not longer than 56 days
Experimental: A bi-central, open, non-comparative study of melarsoprol in patients suffering from secreting multiple myeloma was carried out.
Patients with secreting multiple myeloma included in the study had been pretreated with and were unresponsive to a minimum of 3 VAD (vincristine-adriamycine-dexamethasone) or VAMP (vincristine-adriamycine-methylprednisolone) chemotherapy regimens.
Patients are treated daily with co-administration of anti-convulsive and B1 vitamin for 56 days if allowed by toxicity.
At the first day, the IV solution of melarsoprol (1mg/kg) is administered in 3 intravenous injections.
The IV solution of melarsoprol (2mg/kg) is then administered daily and for a time period not longer than 56 days in the same manner. […]

NCI cells [10] = assay: DNA fragmentation by agarose gel electrophoresis of genomic DNA; type: cell-based, human; conditions: NCI cells treated with 10^-6 mol/L
NCI cells [11] = assay: Growth inhibition of plasma cell line (cell count and thymidine incorporation); type: cell-based, human
Experimental: as §1, §2
(§10) The growth of NCI, U266, OPM2 and LP1 plasma cell lines in medium alone or in the presence of melarsoprol (10^-5 to 10^-8 mol/L) was assessed by cell count and thymidine incorporation.

OPM2 cells = assay: as above; type: cell-based, human
Experimental: as §1, §2, §10

LP1 cells [12] = assay: as above; type: cell-based, human
Experimental: as §1, §2, §10

U266 = assay: as above; type: cell-based, human; conditions: U266 cells
Experimental: as §1, §2, §10

[13] = test system: plasma-cell enriched preparations of myeloma patients; assay: Viability (trypan blue exclusion) of fresh myeloma cells; type: cell-based, human; conditions: 48 hours, n=4 (40 to 77.5%); 10.5 ± 14.7% without the drug
Excerpt: as §4, §5

[14] = 2 days of culture, 10^-6 mol/L, representative bone marrow sample

With `Nc1nc(N)nc(Nc2ccc([As]3SCC(CO)S3)cc2)n1` (stereo not drawn) [melarsoprol, 2-p-[(4,6-diamino-s-triazin-2-yl)amino]phenyl-4-hydroxymethyl-1,3,2-dithiarsoline] the inhibition of growth [1] was “marginal”, the “toxic lesions in studied organs” value [2] was “no evidence of toxic lesions” and the IC50 [3] was roughly 0.1 µM. The CNS toxicity (leukemia) was “excessive CNS (central nervous system) toxicity”, the anti-leukemic activity (leukemia) was “no major anti-leukemic activity” and the “myeloid cells (CD38^low, CD15 +) positive for the apoptosis marker” value [4, 14] was “less than 1%”. For the same molecule, the “CD15+ myelo-monocytic cell percentages versus controls” value ([4]; day 5, 10^-6 mol/L) was “similar”, the “plasma cells (CD38^higt +) expressing annexin V” value [5, 14] was 12% and the percent CD38-high plasma cells among viable cells at 1 µM ([5]; Homo sapiens, 120 h, read-out: CD38^higt positive cells among viable cells (propidium iodide negative)) was 7.8%. The “percentage of trypan blue negative cells” value (NCI) was 15 ± 7.2%, the “percentage of trypan blue negative cells” value (LP1 cells [6]) was 81 ± 6.8% and the “percentage of trypan blue negative cells” value (OPM2) was 56 ± 11%. The double-negative living cells (NCI cells [7]; at 18 hours) was “only very few”, the “apoptosis (annexin-positive, PI-negative apoptotic cells)” value (NCI cells [7]; time period of 48 hours) was “rapidly induced apoptosis” and the “Annexin-positive, PI-negative apoptotic U266 cells” value (U266 cells) was 18 % of residual cells. The “plasma cell differentiation induced by the mitogen” value [8] was “only slightly inhibited”, the remissions (human myeloma cells; all evaluable experiment) was “remissions have been achieved” and the “level of the HuMIg in mouse serum” value (human myeloma cells; undetectable in some animals) was “dramatic decrease”. The active concentrations (myeloma cells) was 10^-6 to 10^-8 mol/L, the “Efficiency for treating multiple myeloma and reduced side-effects” value [9] was “verified” and the DNA fragmentation (NCI cells [10]) was “typical DNA ladders”. For the same molecule, the “time-dependent inhibition of growth” value (NCI cells [11]) was “marked time-dependent inhibition of growth”, the IC50 (NCI cells [11]; Homo sapiens, 72 hours, cell number and thymidine incorporation, read-out: 50% growth inhibitory concentration (IC50) (converted)) was 0.3 µM and the “time-dependent inhibition of growth” value (OPM2 cells) was “marked time-dependent inhibition of growth”. The IC50 (OPM2 cells; Homo sapiens, OPM-2, growth inhibition) was roughly 0.1 µM, the IC50 (LP1 cells [12]; Homo sapiens, LP-1, LP1 cells, growth inhibition) was roughly 1 µM and the “time-dependent inhibition of growth” value (LP1 cells [12]; LPI cells) was “significant but less important inhibition of growth”. For the same molecule, the IC50 (U266; Homo sapiens, U-266, growth inhibition) was roughly 1 µM, the “time-dependent inhibition of growth” value (U266) was “significant but less important inhibition of growth” and the “mean decline in cell viability” value [13] was 52.5 ± 17.3%.
